Experiments:
[1] = Ratio of inhibitor constant for ATP substrate site of methionine adenosyl transferase and ATP substrate site of M-2 variant methionine adenosyl transferase
[2] = biological target: S-adenosylmethionine synthase isoform type-2 (Rattus norvegicus) (UniProt P18298); test: Inhibition constants against ATP substrate site of M-T (Novikoff Ascitic Hepatoma form) variant of rat Methionine adenosyltransferase
[3] = biological target: S-adenosylmethionine synthase isoform type-2 (Rattus norvegicus) (UniProt P18298); test: Inhibition constants against ATP substrate site of M-2 (kidney form) variant of rat Methionine adenosyltransferase
[4] = Ratio of inhibitor constant for Met substrate site of methionine adenosyl transferase and ATP substrate site of M-2 variant methionine adenosyl transferase
[5] = Ratio of inhibitor constant for ATP substrate site of methionine adenosyl transferase and ATP substrate site of M-T variant methionine adenosyl transferase
[6] = biological target: S-adenosylmethionine synthase isoform type-2 (Rattus norvegicus) (UniProt P18298); test: Inhibition constants with Met (L-methionine) substrate site of M-2 (kidney form) variant of rat Methionine adenosyltransferase
[7] = Ratio of inhibitor constant for Met substrate site of methionine adenosyl transferase and ATP substrate site of M-T variant methionine adenosyl transferase
[8] = biological target: S-adenosylmethionine synthase isoform type-2 (Rattus norvegicus) (UniProt P18298); test: Inhibition constants against Met (L-methionine)P substrate site of M-T (Novikoff Ascitic Hepatoma form) variant of rat Methionine adenosyltransferase

Chain of S-adenosylmethionine synthase isoform type-2 (Rattus norvegicus) (P18298 whole entry, looked up, stated change not applied, canonical isoform): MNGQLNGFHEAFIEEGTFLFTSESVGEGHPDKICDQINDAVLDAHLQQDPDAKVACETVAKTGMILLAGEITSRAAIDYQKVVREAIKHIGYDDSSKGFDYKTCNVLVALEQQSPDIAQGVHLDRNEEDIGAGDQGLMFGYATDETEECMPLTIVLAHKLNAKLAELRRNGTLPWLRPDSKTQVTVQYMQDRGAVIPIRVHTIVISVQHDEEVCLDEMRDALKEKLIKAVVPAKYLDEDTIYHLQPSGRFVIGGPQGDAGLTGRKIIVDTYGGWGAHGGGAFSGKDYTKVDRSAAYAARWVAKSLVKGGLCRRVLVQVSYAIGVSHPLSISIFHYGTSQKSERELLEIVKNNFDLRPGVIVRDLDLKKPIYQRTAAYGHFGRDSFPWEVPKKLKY

## Nc1ncnc2c1ncn2[C@@H]1O[C@H]([C@H](CSCCC(N)C(=O)O)OP(=O)(O)OP(=O)(O)NP(=O)(O)O)[C@@H](O)[C@H]1O (stereo not given in full)
[1]
  Ratio: 1080
[2]
  Ki: 210 nM
[3]
  Ki: 130 nM
[4]
  Ratio: 7.7
[5]
  Ratio: 670
[6]
  Ki: 650 nM
[7]
  Ratio: 22
[8]
  Ki: 670 nM

## CCCCSc1ncnc2c1ncn2[C@@H]1O[C@H]([C@H](CSCC[C@H](N)C(=O)O)OP(=O)(O)OP(=O)(O)NP(=O)(O)O)[C@@H](O)[C@H]1O
[1]
  Ratio: 1170
[2]
  Ki: 110 nM
[3]
  Ki: 120 nM
[4]
  Ratio: 1.7
[5]
  Ratio: 1270
[6]
  Ki: 2900 nM
[7]
  Ratio: 22
[8]
  Ki: 740 nM

## CCCCSc1ncnc2c1ncn2[C@@H]1O[C@H](COP(=O)(O)OP(=O)(O)OP(=O)(O)O)[C@@H](O)[C@H]1O
[1]
  Ratio: 0.45
[2]
  Ki: 100000 nM
[3]
  Ki: 310000 nM
[5]
  Ratio: 1.4
